According to PMC6152631, “Microwave-Assisted Facile Synthesis, Anticancer Evaluation and Docking Study of N-((5-(Substituted methylene amino)-1,3,4-thiadiazol-2-yl)methyl) Benzamide Derivatives” (Molecules : A Journal of Synthetic Chemistry and Natural …, 2017):

What was measured:
Assay type in all cases: cell-based
[1] = tested on: SKMEL-2 (human melanoma cancer cell line); assay: MTT assay, in vitro anticancer activity, SKMEL-2; details: SK-MEL-2, 48 h treatment
Method: (§1) The synthesized compounds 7(a–l) were evaluated for their in vitro anticancer activity against MCF-7 (human breast cancer cell line), HeLa (human cervical cancer cell line), SKMEL-2 (human melanoma cancer cell line) and HL-60 (human leukemia cancer cell line) cancer cell lines, as shown in Table 2. […] The GI50 values (the concentration required to achieve a growth inhibition of 50%) for the synthesized compounds were determined by MTT assay method. The in vitro anticancer evaluation results and GI50 values were listed in Table 2, and the well-known anticancer drug Adriamycin was used as positive control.
(§2) The synthesized compounds 7(a–l) were evaluated for their in vitro anticancer activity against MCF-7 (human breast cancer cell line), HeLa (human cervical cancer cell line), SKMEL-2 (human melanoma cancer cell line) and HL-60 (human leukemia cancer cell line) cancer cell lines. The GI50 values (concentration required to Growth inhibition of 50%) for the synthesized compounds were determined using the MTT assays method.
(§3) The stock solutions of test compounds were prepared in DMSO. After 24 h incubation, different concentrations (2, 4, 6, 8 µM) of compounds, made by serial dilution in culture medium, were added in 48 h incubation. The final concentration of DMSO was 0.01% in each well. […] The cell growth was determined using MTT (3-(4,5-dimethylthiazol-2-yl)-2,5-diphenyl tetrazolium bromide (Sigma, St. Louis, MO, USA) reduction assay, which is based on the ability of viable cells to reduce a soluble yellow tetrazolium salt to blue formazan crystal. Briefly, after 48 h of treatments, the 10 µl of MTT dye, prepared in phosphate buffered saline (PBS) was added to all wells. The plates were then incubated for 4 h at 37 °C. Supernatant from each well was carefully removed, formazon crystals were dissolved in 100 µL of DMSO and absorbance at 540 nm wavelength was recorded and each concentration was tested in threefold. The GI50 values were determined as concentration of compounds that inhibited cancer cell growth by 50%.

[2] = tested on: MCF-7 (human breast cancer cell line); assay: MTT assay, in vitro anticancer activity, MCF-7; details: MCF7, 48 h treatment
Method: as §1, §2, §3

[3] = tested on: HL-60 (human leukemia cancer cell line); assay: MTT assay, in vitro anticancer activity, HL-60; details: 48 h treatment
Method: as §1, §2, §3

[4] = tested on: HeLa (human cervical cancer cell line); assay: MTT assay, in vitro anticancer activity, HeLa; details: 48 h treatment
Method: as §1, §2, §3

[5] = MTT assay, cytotoxicity on non-tumorigenic cells, MCF-10A; details: human, MCF-10A non-tumorigenic breast epithelial cells; MTT, MCF-10A normal breast epithelial cells
Method: [The procedure below names another cell line; the source lists this cell line under the same test.] as §1, §3

[6] = tested on: MCF-10A normal breast epithelial cell lines; assay: as above; details: MCF-7 vs MCF-10A GI50
Method: [The procedure below names another cell line; the source lists this cell line under the same test.] as §1, §3

| Structure (SMILES) | GI50 [1] | GI50 [2] | GI50 [3] | GI50 [4] | GI50 at 48 h [5] | selectivity for MCF-7 cancer cell lines in comparison to MCF-10A normal breast epithelial cell lines [6] |
| --- | --- | --- | --- | --- | --- | --- |
| COc1cc(/C=N/c2nnc(CNC(=O)c3ccccc3)s2)ccc1O [Compound 7e, (E)-N-((5-(4-Hydroxy-3-methoxybenzylideneamino)-1,3,4-thiadiazol-2-yl)methyl) benzamide] | 28.1 µM | 35.2 µM | 39.6 µM | 46.8 µM | – | – |
| O=C(NCc1nnc(/N=C/c2ccccc2O)s1)c1ccccc1 [Compound 7d, (E)-N-((5-(2-Hydroxybenzylideneamino)-1,3,4-thiadiazol-2-yl)methyl) benzamide] | 34 µM | 36.7 µM | 40.2 µM | 52.4 µM | – | – |
| O=C(NCc1nnc(/N=C/c2ccco2)s1)c1ccccc1 [Compound 7k, (E)-N-((5-(Furan-2-ylmethyleneamino)-1,3,4-thiadiazol-2-yl)methyl) benzamide] | 19.6 µM | 11.7 µM | 35.5 µM | 23.8 µM | > 100 µM | – |
| COc1cc(OC)c(OC)cc1/C=N/c1nnc(CNC(=O)c2ccccc2)s1 [Compound 7j, (E)-N-((5-(2,4,5-Trimethoxybenzylideneamino)-1,3,4-thiadiazol-2-yl)methyl) benzamide] | 55.7 µM | 51.4 µM | 49.9 µM | 78.8 µM | – | – |
| O=C(NCc1nnc(/N=C/c2ccc(O)cc2)s1)c1ccccc1 [Compound 7c, (E)-N-((5-(4-Hydroxybenzylideneamino)-1,3,4-thiadiazol-2-yl)methyl) benzamide] | 27.5 µM | 32.4 µM | 33.3 µM | 41.1 µM | – | – |
| COc1ccc(/C=N/c2nnc(CNC(=O)c3ccccc3)s2)cc1 [Compound 7g, (E)-N-((5-(4-Methoxybenzylideneamino)-1,3,4-thiadiazol-2-yl)methyl) benzamide] | 46.4 µM | 41 µM | 42.4 µM | 66.1 µM | – | – |
| O=C(NCc1nnc(/N=C/c2ccc(Cl)cc2)s1)c1ccccc1 [Compound 7a, (E)-N-((5-(4-Chlorobenzylideneamino)-1,3,4-thiadiazol-2-yl)methyl) benzamide] | 21.9 µM | 22.9 µM | 21.7 µM | 32.8 µM | > 100 µM | – |
| CCOc1cc(/C=N/c2nnc(CNC(=O)c3ccccc3)s2)ccc1O [Compound 7f, (E)-N-((5-(3-Ethoxy-4-hydroxybenzylideneamino)-1,3,4-thiadiazol-2-yl)methyl) benzamide] | 30 µM | 38.4 µM | 37.5 µM | 49.2 µM | – | – |
| O=C(NCc1nnc(/N=C/c2ccc(Cl)cc2Cl)s1)c1ccccc1 [Compound 7b, (E)-N-((5-(2,4-Dichlorobenzylideneamino)-1,3,4-thiadiazol-2-yl)methyl) benzamide] | 22.9 µM | 28.7 µM | 28.2 µM | 39 µM | 86.1 µM | three |
| COc1cccc2c1C(=O)c1c(O)c3c(c(O)c1C2=O)C[C@@](O)(C(=O)CO)C[C@@H]3O[C@H]1C[C@H](N)[C@H](O)[C@H](C)O1 [ADR, Adriamycin, reference compound] | < 10 µM | < 10 µM | < 10 µM | < 10 µM | – | – |
| O=C(NCc1nnc(/N=C/c2cccs2)s1)c1ccccc1 [Compound 7l, (E)-N-((5-(Thiophen-2-ylmethyleneamino)-1,3,4-thiadiazol-2-yl)methyl) benzamide] | 22 µM | 19 µM | 29.9 µM | 28.8 µM | > 100 µM | – |
| COc1ccc(/C=N/c2nnc(CNC(=O)c3ccccc3)s2)cc1OC [Compound 7h, (E)-N-((5-(3,4-Dimethoxybenzylideneamino)-1,3,4-thiadiazol-2-yl)methyl) benzamide] | 49.1 µM | 46.2 µM | 48.2 µM | 71.7 µM | – | – |
| COc1cc(/C=N/c2nnc(CNC(=O)c3ccccc3)s2)cc(OC)c1OC [Compound 7i, (E)-N-((5-(3,4,5-Trimethoxybenzylideneamino)-1,3,4-thiadiazol-2-yl)methyl) benzamide] | 52.6 µM | 49 µM | 45.8 µM | 78 µM | – | – |
